For 39 compounds, IC50 results are on record in ChEMBL document CHEMBL5096221, “Discovery of a Highly Potent and Orally Bioavailable STAT3 Dual Phosphorylation Inhibitor for Pancreatic Cancer Treatment” (J Med Chem, 2022).

Assay [1] deals with Signal transducer and activator of transcription 3 (Homo sapiens, UniProt P40763). Kind of assay: Inhibition of STAT3 in human HEK293T cells assessed as inhibition of IL-6 stimulated STAT3 phosphorylation by dual-luciferase reporter assay. The assay is classed as cell-based. In general terms: A reporter such as luciferase makes a cellular process visible.
Chain of Signal transducer and activator of transcription 3 (P40763 whole entry): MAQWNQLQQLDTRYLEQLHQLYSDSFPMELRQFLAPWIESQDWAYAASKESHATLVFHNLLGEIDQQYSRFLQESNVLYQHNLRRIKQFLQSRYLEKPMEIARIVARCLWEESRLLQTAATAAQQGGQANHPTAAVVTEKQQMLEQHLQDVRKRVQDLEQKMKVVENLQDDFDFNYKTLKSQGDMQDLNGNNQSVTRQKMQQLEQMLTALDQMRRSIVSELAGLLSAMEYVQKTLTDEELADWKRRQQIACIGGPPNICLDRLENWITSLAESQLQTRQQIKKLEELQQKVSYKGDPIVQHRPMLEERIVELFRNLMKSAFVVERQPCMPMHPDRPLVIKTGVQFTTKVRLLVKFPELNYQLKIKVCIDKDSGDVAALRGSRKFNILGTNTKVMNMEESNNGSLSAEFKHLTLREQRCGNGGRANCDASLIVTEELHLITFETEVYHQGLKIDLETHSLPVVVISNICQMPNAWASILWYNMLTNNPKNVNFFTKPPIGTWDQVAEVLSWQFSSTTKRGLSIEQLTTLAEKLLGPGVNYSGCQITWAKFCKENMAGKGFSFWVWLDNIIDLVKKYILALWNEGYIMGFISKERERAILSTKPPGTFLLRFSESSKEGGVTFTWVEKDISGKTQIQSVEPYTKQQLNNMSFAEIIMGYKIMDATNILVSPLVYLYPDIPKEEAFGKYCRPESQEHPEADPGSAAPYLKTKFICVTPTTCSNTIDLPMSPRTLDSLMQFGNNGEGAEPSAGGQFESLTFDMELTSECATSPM
Assay [2] is described as follows: Inhibition of ATP production in human BXPC-3 cells incubated for 20 to 24 hrs by ATP assay kit method. The assay is classed as functional, cell-based.
A further assay relates to BXPC-3. Kind of assay: Anti-proliferative activity against human BXPC-3 cells assessed as cell growth inhibition incubated for 72 hrs by MTS assay. The assay is classed as functional, cell-based. Particulars: BXPC-3, 72 h. On the technique in general: Tetrazolium assays rely on reduction of a dye to a coloured formazan, in cell work by metabolically active cells.
The subject of a further assay is Capan-2. Kind of assay: Anti-proliferative activity against human Capan-2 cells assessed as cell growth inhibition incubated for 72 hrs by MTS assay. The assay is classed as functional, cell-based. The settings on record: Capan-2, 72 h.

By IC50 is commonly meant the concentration that inhibits the measured activity by half. As for `Cc1cccc(CN2CCN(C(=O)c3cc4ccc(Oc5cnc(-c6nc(-c7ccc(C(F)(F)F)cc7)no6)cn5)cc4n3C)CC2)c1`, in assay [1], the IC50 is above 1000 nM.
The same measure, in the same setting: the same measure for `Cn1c(C(=O)N2CCN(Cc3cccc(C(F)(F)F)c3)CC2)cc2ccc(Oc3cnc(-c4nc(-c5ccc(C(F)(F)F)cc5)no4)cn3)cc21`: above 1000 nM.
In the case of `Cn1c(C(=O)N2CCN(Cc3ccc(OCC(F)(F)F)cc3)CC2)cc2ccc(Oc3cnc(-c4nc(-c5cccc(F)c5)no4)cn3)cc21`, the IC50 is 38.3 nM in assay [1], 19.9 nM in assay [2], 1.9 nM in the assay on BXPC-3 and 5 nM in the assay on Capan-2.
Taken in the same sequence, the figures for `Cn1c(C(=O)N2CCN(Cc3ccc(OCC(F)(F)F)cc3)CC2)cc2ccc(Oc3cnc(-c4nc(-c5ccccc5F)no4)cn3)cc21` were 13.1 nM, 16.5 nM, 1.7 nM and 7.7 nM.
For `Cn1c(C(=O)N2CCN(Cc3ccc(Cl)cc3)CC2)cc2ccc(Oc3cnc(-c4nc(-c5ccc(C(F)(F)F)cc5)no4)cn3)cc21`, the IC50 in assay [1] is 649 nM.
On the same count and under the same terms, the same measure for `Cn1c(C(=O)N2CCN(CCc3ccccc3)CC2)cc2ccc(Oc3cnc(-c4nc(-c5ccc(C(F)(F)F)cc5)no4)cn3)cc21`: 595 nM.
Consider `O=C(c1cc2ccc(Oc3cnc(-c4nc(-c5ccc(C(F)(F)F)cc5)no4)cn3)cc2[nH]1)N1CCN(Cc2ccc(OCC(F)(F)F)cc2)CC1`, for which the IC50 was 30.5 nM in assay [1] and 25 nM in assay [2].
With `Cn1c(C(=O)N2CCN(Cc3ccc(OCC(F)(F)F)cc3)CC2)cc2ccc(Oc3cnc(-c4nc(-c5ccc(C(F)(F)F)cc5)no4)cn3)cc21`, the IC50 in assay [1] worked out at 22.3 nM; in assay [2] it was 32.5 nM; in the assay on BXPC-3, 3.3 nM; with Capan-2 it was 8.6 nM.
As for `Cn1c(C(=O)N2CCN(Cc3ccc(Br)cc3)CC2)cc2ccc(Oc3cnc(-c4nc(-c5ccc(C(F)(F)F)cc5)no4)cn3)cc21`, the half-maximal inhibitory concentration (IC50) in assay [1] worked out at 836 nM.
With `COc1ccccc1-c1noc(-c2cnc(Oc3ccc4cc(C(=O)N5CCN(Cc6ccc(OCC(F)(F)F)cc6)CC5)n(C)c4c3)cn2)n1`, the IC50 amounted to 45.5 nM in assay [1], 56.5 nM in assay [2], 1.3 nM with BXPC-3 and 8.6 nM in the assay on Capan-2.
In the same order, the values of `CCN1CCN(C(=O)c2cc3ccc(Oc4cnc(-c5nc(-c6ccc(C(F)(F)F)cc6)no5)cn4)cc3n2C)CC1` are 1110 nM, 1.6 nM, 1.9 nM and 1 nM.
As for `COc1ccc(CN2CCN(C(=O)c3cc4ccc(Oc5cnc(-c6nc(-c7ccc(C(F)(F)F)cc7)no6)cn5)cc4n3C)CC2)cc1`, the IC50 in assay [1] worked out at 63.6 nM.
The same measure, in the same setting: the same measure for `Cn1c(C(=O)N2CCN(Cc3ccccc3OCC(F)(F)F)CC2)cc2ccc(Oc3cnc(-c4nc(-c5ccc(C(F)(F)F)cc5)no4)cn3)cc21`: above 1000 nM.
As to `Cn1c(C(=O)N2CCN(Cc3ccc(OCC(F)(F)F)cc3)CC2)cc2ccc(Oc3cnc(-c4nc(-c5ccc(Br)cc5)no4)cn3)cc21`, the IC50 stood at 28.1 nM in assay [1], 14.3 nM in assay [2], 2.7 nM with BXPC-3 and 9.3 nM with Capan-2.
Take `Cn1c(C(=O)N2CCN(Cc3ccc(OC(F)(F)F)cc3)CC2)cc2ccc(Oc3cnc(-c4nc(-c5ccc(C(F)(F)F)cc5)no4)cn3)cc21`: the IC50 in assay [1] is 76.1 nM.
Consider `COCCn1c(C(=O)N2CCN(Cc3ccc(OCC(F)(F)F)cc3)CC2)cc2ccc(Oc3cnc(-c4nc(-c5ccc(C(F)(F)F)cc5)no4)cn3)cc21`, for which the IC50 in assay [1] was found to be 39.9 nM; in assay [2], 93.2 nM.
Take `COC(=O)Cn1c(C(=O)N2CCN(Cc3ccc(OCC(F)(F)F)cc3)CC2)cc2ccc(Oc3cnc(-c4nc(-c5ccc(C(F)(F)F)cc5)no4)cn3)cc21`: the IC50 in assay [1] is above 1000 nM.
Still for that read-out and setting: the same measure for `Cn1c(C(=O)N2CCN(Cc3ccc(OCC(F)(F)F)cc3)CC2)cc2ccc(Oc3cnc(-c4nc(-c5ccccc5)no4)cn3)cc21`: 217 nM; for `Cn1c(C(=O)N2CCN(Cc3cccc(OCC(F)(F)F)c3)CC2)cc2ccc(Oc3cnc(-c4nc(-c5ccc(C(F)(F)F)cc5)no4)cn3)cc21`: above 1000 nM.
On the same count and under the same terms, the same measure for `CCCN1CCN(C(=O)c2cc3ccc(Oc4cnc(-c5nc(-c6ccc(C(F)(F)F)cc6)no5)cn4)cc3n2C)CC1`: 800 nM; for `Cn1c(C(=O)N2CCN(C(=O)CCl)CC2)cc2ccc(Oc3cnc(-c4nc(-c5ccc(C(F)(F)F)cc5)no4)cn3)cc21`: above 1000 nM.
Consider `CCCn1c(C(=O)N2CCN(Cc3ccc(OCC(F)(F)F)cc3)CC2)cc2ccc(Oc3cnc(-c4nc(-c5ccc(C(F)(F)F)cc5)no4)cn3)cc21`, for which the IC50 in assay [1] was 613 nM.
With `Cc1ccc(CN2CCN(C(=O)c3cc4ccc(Oc5cnc(-c6nc(-c7ccc(C(F)(F)F)cc7)no6)cn5)cc4n3C)CC2)cc1`, in assay [1], the IC50 was 492 nM.
Still for that read-out and setting: the same measure for `COC(=O)CN1CCN(C(=O)c2cc3ccc(Oc4cnc(-c5nc(-c6ccc(C(F)(F)F)cc6)no5)cn4)cc3n2C)CC1`: above 1000 nM.
Same read-out and setting: the same measure for `Cn1c(C(=O)N2CCN(C(=O)c3ccc(C(F)(F)F)cc3)CC2)cc2ccc(Oc3cnc(-c4nc(-c5ccc(C(F)(F)F)cc5)no4)cn3)cc21`: above 1000 nM.
Regarding `COc1cccc(-c2noc(-c3cnc(Oc4ccc5cc(C(=O)N6CCN(Cc7ccc(OCC(F)(F)F)cc7)CC6)n(C)c5c4)cn3)n2)c1`, the IC50 is 19.8 nM in assay [1], 12.6 nM in assay [2], 1.5 nM with BXPC-3 and 6.5 nM in the assay on Capan-2.
In the case of `CCOC(=O)Cn1c(C(=O)N2CCN(Cc3ccc(OCC(F)(F)F)cc3)CC2)cc2ccc(Oc3cnc(-c4nc(-c5ccc(C(F)(F)F)cc5)no4)cn3)cc21`, the IC50 in assay [1] is above 1000 nM.
As for `Cn1c(C(=O)N2CCN(Cc3ccc(OCC(F)(F)F)cc3)CC2)cc2ccc(Oc3cnc(-c4nc(-c5ccc(OC(F)(F)F)cc5)no4)cn3)cc21`, the IC50 in assay [1] stood at 39.2 nM; in assay [2], 10.5 nM; in the assay with BXPC-3, 11.4 nM; in the assay on Capan-2, 6.4 nM.
Consider `CCn1c(C(=O)N2CCN(Cc3ccc(OCC(F)(F)F)cc3)CC2)cc2ccc(Oc3cnc(-c4nc(-c5ccc(C(F)(F)F)cc5)no4)cn3)cc21`, for which the IC50 in assay [1] stood at 167 nM.
The same measure, in the same setting: the same measure for `CN1CCN(C(=O)c2cc3ccc(Oc4cnc(-c5nc(-c6ccc(C(F)(F)F)cc6)no5)cn4)cc3n2C)CC1`: above 1000 nM; for `COc1ccc(CN2CCN(C(=O)c3cc4ccc(Oc5cnc(-c6nc(-c7ccc(C(F)(F)F)cc7)no6)cn5)cc4n3C)CC2)cc1F`: 134 nM.
For `Cn1c(C(=O)N2CCN(Cc3ccc(OCC(F)(F)F)cc3)CC2)cc2ccc(Oc3cnc(-c4nc(-c5ccc(Cl)cc5)no4)cn3)cc21`, the IC50 in assay [1] amounted to 35.7 nM; in assay [2], 25.8 nM; in the assay with BXPC-3, 4.8 nM; in the assay on Capan-2, 12.6 nM.
Consider `O=C(c1cc2ccc(Oc3cnc(-c4nc(-c5ccc(C(F)(F)F)cc5)no4)cn3)cc2n1Cc1ccccc1)N1CCN(Cc2ccc(OCC(F)(F)F)cc2)CC1`, for which the IC50 in assay [1] was above 1000 nM.
For `Cn1c(C(=O)N2CCN(Cc3ccc(C(F)(F)F)cc3)CC2)cc2ccc(Oc3cnc(-c4nc(-c5ccc(C(F)(F)F)cc5)no4)cn3)cc21`, the IC50 came to 72.4 nM in assay [1] and 102 nM in assay [2].
For `C=CCn1c(C(=O)N2CCN(Cc3ccc(OCC(F)(F)F)cc3)CC2)cc2ccc(Oc3cnc(-c4nc(-c5ccc(C(F)(F)F)cc5)no4)cn3)cc21`, the IC50 in assay [1] was above 1000 nM.
On the same count and under the same terms, the same measure for `CC(C)C(=O)n1c(C(=O)N2CCN(Cc3ccc(OCC(F)(F)F)cc3)CC2)cc2ccc(Oc3cnc(-c4nc(-c5ccc(C(F)(F)F)cc5)no4)cn3)cc21`: 337 nM.
In the case of `Cn1c(C(=O)N2CCN(Cc3ccc(OCC(F)(F)F)c(F)c3)CC2)cc2ccc(Oc3cnc(-c4nc(-c5ccc(C(F)(F)F)cc5)no4)cn3)cc21`, the IC50 in assay [1] turned out to be 101 nM; in assay [2] it was 117 nM.
Take `Cn1c(C(=O)N2CCN(Cc3ccc(F)cc3)CC2)cc2ccc(Oc3cnc(-c4nc(-c5ccc(C(F)(F)F)cc5)no4)cn3)cc21`: the IC50 in assay [1] was 427 nM.
On the same count and under the same terms, the same measure for `Cn1c(C(=O)N2CCN(C(=O)c3ccc(OCC(F)(F)F)cc3)CC2)cc2ccc(Oc3cnc(-c4nc(-c5ccc(C(F)(F)F)cc5)no4)cn3)cc21`: above 1000 nM.
